Experimental data as given in US20140242606A1, “PROBE FOR iFRET AND USE THEREOF” (KOREA RESEARCH INSTITUTE OF BIOSCIENCE AND BIOTECHNOLOGY, priority 2011, published 2014).

Columns and labels:
[1] = value used for calculation; cited from earlier work
[2] = Fluorescence characterization of fluorescent molecules (excitation and emission wavelengths); assay type: physicochemical; conditions: fluorescent molecule, Table 1
From the text: 1-Naphthylethylenediamine of Chemical Formula I can be effectively detected by LED (light-emitting diode), and used as a fluorescent probe. In addition, because this compound has an excitation wavelength of 340 nm to 380 nm and an emission wavelength of 400 nm to 600 nm, it has longer emission wavelength than the known fluorophores, and therefore, it can be detected as a fluorescent molecule distinct from the cellular autofluorescence.
The excitation and emission wavelengths of the fluorescent molecules of the present invention, that is, the compounds represented by Chemical Formulae I to XXII are described in Table 1, and graphs showing the fluorescent characteristics thereof are given in FIGS. 3 to 15.

[3] = molecular target: T1, active caspase (Homo sapiens, UniProt P42574); test: iFRET detection of caspase-3 with probe XXIII; assay type: binding; conditions: mixture of probe and active caspase, excitation at 280 nm, versus caspase or probe alone
T1 sequence (P42574 29-175 limits assumed): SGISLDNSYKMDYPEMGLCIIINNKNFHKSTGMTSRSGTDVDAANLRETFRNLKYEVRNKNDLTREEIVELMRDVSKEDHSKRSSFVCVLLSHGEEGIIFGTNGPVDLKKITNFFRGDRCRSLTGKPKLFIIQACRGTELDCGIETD
T1 sequence (P42574 176-277 limits assumed): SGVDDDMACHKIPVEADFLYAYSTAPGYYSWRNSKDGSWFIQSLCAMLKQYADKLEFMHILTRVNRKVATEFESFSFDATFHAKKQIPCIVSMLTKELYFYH
From the text: <Detection of Caspase-3 Protein and Test of its Activity Using iFRET Probe of Chemical Formula XXIII>
Chemical Formula XXIII and caspase protein were used to detect iFRET signals.

[4] = tested on: inactive caspase; test: iFRET control with inactive caspase; assay type: binding; conditions: inactive caspase and probe excited at 280 nm
[5] = Fluorescence of the iFRET probe alone; assay type: physicochemical; conditions: for fluorescence emission wavelength of probe alone: excitation / UV irradiation at 280 nm
From the text: After excitation at 260, 280, 340, and 360 nm, the emitted fluorescence spectra were examined. […]
(§1) As in FIG. 23 showing the result of using the compound of Chemical Formula XXV as a probe for iFRET, the probe itself emitted low fluorescence (blue line) at 430 nm by UV irradiation at 280 nm; the protein (streptavidin) emitted fluorescence (green line) at 340 nm by UV irradiation at 280 nm.
As in FIG. 24 showing the result of using the compound of Chemical Formula XXVI as a fluorescent probe, the probe itself emitted low fluorescence (blue line) at 460 nm by UV irradiation at 280 nm; the protein (streptavidin) emitted fluorescence (green line) at 340 nm by UV irradiation at 280. […] Further, it was confirmed that the fluorescence increasing rate at the above emission wavelength was 600% or more, indicating production of effective iFRET signals. […]

[6] = molecular target: T2, streptavidin (Streptomyces avidinii, UniProt P22629); test: iFRET detection of streptavidin with biotin-conjugated probes; assay type: binding; conditions: UV irradiation at 280 nm
From the text: The results of detecting streptavidin using Compounds of Chemical Formulae XXV to XXVIII as probes for iFRET are shown in FIGS. 23 to 26.
as §1
As in FIG. 24 showing the result of using the compound of Chemical Formula XXVI as a fluorescent probe, the probe itself emitted low fluorescence (blue line) at 460 nm by UV irradiation at 280 nm; the protein (streptavidin) emitted fluorescence (green line) at 340 nm by UV irradiation at 280. […] Further, it was confirmed that the fluorescence increasing rate at the above emission wavelength was 600% or more, indicating production of effective iFRET signals.
Because the compound of Chemical Formula XXVII emitted fluorescence at the longer wavelength than the known iFRET probe, signal-to-noise ratio is […] during real-time cell imaging, thereby providing more clear images.
In order to examine target specificity of the probe having Chemical Formula XXVIII, the probe was exposed to BSA to examine whether iFRET signals were produced by binding of the probe to BSA. […] Therefore, it was confirmed that the biotin-conjugated iFRET fluorescent probe of the present invention selectively binds to streptavidin to produce iFRET signals.

[7] = Quantum yield measurement; assay type: physicochemical; conditions: 0.1 M pH 10.0 phosphate buffer, standard 4-methyl-umbelliferone
Experimental: (§2) The quantum yield of each compound was measured in 0.1 M pH 10.0 phosphate buffer. 4-methyl-umbelliferone (ΦF 0.63) was used as a standard material, tryptophan (ΦF=0.12) was used as an FRET donor to calculate the quantum yield. FRET efficiency was calculated based on the results measured in PBS buffer at pH 7.4, and fluorescence was measured using an LS55 fluorescence spectrometer manufactured by Perkin Elmer.

[8] = molecular target: T2, streptavidin; test: FRET efficiency and Forster distance of biotin-conjugated probes; assay type: binding; conditions: between iFRET probe and streptavidin
Experimental: as §2

SMILES	Emission wavelength (nm) [2] [nm]	Excitation wavelength (nm) [2]	further results
Cc1cc(=O)oc2cc(O)ccc12 [4-methyl-umbelliferone]			quantum yield ΦF of standard material / FRET donor [1]: 0.63
NCCNc1cccc2ccccc12 [Chemical Formula I, 1-naphthylethylenediamine]	430	340 nm	
COC(=O)C1=CN(C)C=CC1(C)C [Chemical Formula II, methyl 1,4,4-trimethyl-1,4-dihydropyridine-3-carboxylate]	450	360 nm	
COC(=O)C1=CN(C)C=C(C(=O)O)C1 [Chemical Formula IV, 5-(methoxycarbonyl)-1-methyl-1,4-dihydropyridine-3-carboxylic acid]	480	390-400 nm	
O=C(O)/C=C/c1cc2ccc(O)cc2oc1=O [Chemical Formula IX, 3-(7-hydroxy-2-oxo-2H-chromen-3-yl)acrylic acid]	480	370-380 nm	
COC(=O)C1=C(C)N(Cc2ccccc2)C=CC1(C)C [Chemical Formula V, methyl 1-benzyl-2,4,4-trimethyl-1,4-dihydropyridine-3-carboxylate]	430	330 nm	
COC(=O)C1=CN(C)C=C(C(=O)OC)C1C=C(C)C [Chemical Formula VI, dimethyl 1-methyl-4-(2-methyl-1-propenyl)-1,4-dihydropyridine-3,5-dicarboxylate]	450	390 nm	
COC(=O)C1=CN(C)C=C(C(=O)O)C1C=C(C)C (centres unmarked) [Chemical Formula VII, 5-(methoxycarbonyl)-1-methyl-4-(2-methyl-1-propenyl)-1,4-dihydropyridine-3-carboxylic acid]	450	380 nm	
COC(=O)CC1C(C(=O)OC)=CN(C)C=C1C(=O)OC [Chemical Formula VIII, dimethyl 4-(2-methoxy-2-oxoethyl)-1-methyl-1,4-dihydropyridine-3,5-dicarboxylate]	450	370 nm	
CC(C)[C@H](NC(=O)[C@H](CCC(=O)O)NC(=O)[C@H](CC(=O)O)NC(=O)CCC(=O)NCCNc1cccc2ccccc12)C(=O)N[C@H](C=O)CC(=O)O [Chemical Formula XXIII]			increase of fluorescence at 445 nm [3]: approximately 300%; iFRET signals [4]: no iFRET signals were observed; fluorescence emission wavelength of probe alone [5]: approximately 445 nm
O=C(CCCC[C@@H]1SC[C@@H]2NC(=O)N[C@@H]21)NCCNc1cccc2ccccc12 [Chemical Formula XXV, N-biotinyl N′-(1-naphthyl)ethylenediamine]			fluorescence / iFRET signal of mixture of probe and streptavidin [6]: increased fluorescence at 430 nm; Quantum yield (ΦF) [7]: 0.7; R0 (Fōrster distance) [8]: 1.837 nm; fluorescence emission wavelength of probe alone [5]: 430 nm
O=C(CCCCC1SCC2NC(=O)NC21)NCCNC(=O)Cc1cc(=O)oc2cc(O)ccc12 (centres unmarked) [Chemical Formula XXVI, N-(7-hydroxycoumarin-4-acetyl)-N′-(biotinyl)ethylenediamine]			fluorescence / iFRET signal of mixture of probe and streptavidin [6]: increased fluorescence at 460 nm; fluorescence increasing rate at emission wavelength 460 nm ([6]; mixture of probe and streptavidin): ≥ 600%; Quantum yield (ΦF) [7]: 0.7; R0 (Fōrster distance) [8]: 1.675 nm; fluorescence emission wavelength of probe alone [5]: 460 nm
O=C(/C=C/c1cc2ccc(O)cc2oc1=O)NCCNC(=O)CCCC[C@@H]1SC[C@@H]2NC(=O)N[C@@H]21 [Chemical Formula XXVII, N-((E)-7-hydroxycoumarin-3-acryl)-N′-(biotinyl)ethylenediamide]			fluorescence / iFRET signal of mixture of probe and streptavidin [6]: increased fluorescence at 480 nm; Quantum yield (ΦF) [7]: 0.105; R0 (Fōrster distance) [8]: 2.161 nm
COC(=O)CCC(NC(=O)C(CC(=O)OC)NC(=O)CCC(=O)NCCNc1cccc2ccccc12)C(=O)N[C@@H](C(=O)NC(CC(=O)OC)C(=O)C(F)(F)F)C(C)C (stereo partly drawn) [Chemical Formula XXXII, N-(1-naphthyl)ethyleneamide-4-butaneamide-Asp(CO2Me)-L-Glu(CO2Me)-L-Val-Asp(CO2Me)-(ketone)-CF3]			fluorescence emission wavelength of probe [5]: 430 nm
N[C@@H](Cc1c[nH]c2ccccc12)C(=O)O [tryptophan]			quantum yield ΦF of standard material / FRET donor [1]: 0.12

More lines, main results first:

Emission wavelength (nm) [2] [nm]	Excitation wavelength (nm) [2]	SMILES	further results
510	430 nm	COC(=O)/C=C/c1cc2ccc(O)cc2oc1=O [Chemical Formula X, methyl 3-(7-hydroxy-2-oxo-2H-chromen-3-yl)acrylate]	
480	380-420 nm	CC(C)(C)OC(=O)NCCNC(=O)/C=C/c1cc2ccc(O)cc2oc1=O [Chemical Formula XI, tert-butyl 2-(3-(7-hydroxy-2-oxo-2H-chromen-3-yl)acrylamido)ethylcarbamate]	
450	400 nm	Cc1ccc2cc(C(=O)O)c(=O)oc2c1 [Chemical Formula XIII]	
450	370 nm	Cc1cc(=O)oc2cc(O)ccc12 [Chemical Formula XIV]	
520	340 nm	CN(C)c1cccc2c(S(=O)(=O)Cl)cccc12 [Chemical Formula XIX]	
470	400 nm	CCN(CC)c1ccc2cc(C(=O)n3ccnc3)c(=O)oc2c1 [Chemical Formula XVIII]	
390	330 nm	COc1ccc2cc(C(=O)O)c(=O)oc2c1 [Chemical Formula XVI]	
450	330 nm	CC(C)(C)OC(=O)Nc1ccc2cc(/C=C/C(=O)O)ccc2c1 [Chemical Formula XV]	
490	370 nm	CCOC(=O)Cc1cc(=O)oc2cc(N(C)C)ccc12 [Chemical Formula XX, ethyl 2-(7-(dimethylamino)-2-oxo-2H-chromen-4-yl)acetate]	
480	370 nm	CN(C)c1ccc2c(CC(=O)O)cc(=O)oc2c1 [Chemical Formula XXI, 2-(7-(dimethylamino)-2-oxo-2H-chromen-4-yl)acetic acid]	
450	370 nm	CCOC(=O)Cc1cc(=O)oc2cc(N(CC)CC)ccc12 [Chemical Formula XXII, ethyl 2-(7-(diethylamino)-2-oxo-2H-chromen-4-yl)acetate]	
